Literature values in patent publication US20040248925A1, “Use of 4-phenyl substituted tetrahydroisoquinolines in the treatment of pain, migraine and urinary incontinence” (priority 2002, published 2004).

Conditions: following treatment with imipramine; background statement

Compound: CN(C)CCCN1c2ccccc2CCc2ccccc21 [imipramine, Imipramine]
- further patients in whom improvements can be seen: 15-20%
- patients in whom enuresis can be cured: over 50%
